The values that follow come from ChEMBL document CHEMBL1139229, “Design and synthesis of potent inhibitors of the malaria parasite dihydroorotate dehydrogenase” (J Med Chem, 2007).

The target in data set [1] is Dihydroorotate dehydrogenase (quinone), mitochondrial (Homo sapiens, UniProt Q02127). Put plainly: Inhibition of human recombinant DHODH.
In data set [2] the target is T1, Dihydroorotate dehydrogenase (Plasmodium falciparum, UniProt Q54A96).
T1 sequence (Q54A96 whole entry): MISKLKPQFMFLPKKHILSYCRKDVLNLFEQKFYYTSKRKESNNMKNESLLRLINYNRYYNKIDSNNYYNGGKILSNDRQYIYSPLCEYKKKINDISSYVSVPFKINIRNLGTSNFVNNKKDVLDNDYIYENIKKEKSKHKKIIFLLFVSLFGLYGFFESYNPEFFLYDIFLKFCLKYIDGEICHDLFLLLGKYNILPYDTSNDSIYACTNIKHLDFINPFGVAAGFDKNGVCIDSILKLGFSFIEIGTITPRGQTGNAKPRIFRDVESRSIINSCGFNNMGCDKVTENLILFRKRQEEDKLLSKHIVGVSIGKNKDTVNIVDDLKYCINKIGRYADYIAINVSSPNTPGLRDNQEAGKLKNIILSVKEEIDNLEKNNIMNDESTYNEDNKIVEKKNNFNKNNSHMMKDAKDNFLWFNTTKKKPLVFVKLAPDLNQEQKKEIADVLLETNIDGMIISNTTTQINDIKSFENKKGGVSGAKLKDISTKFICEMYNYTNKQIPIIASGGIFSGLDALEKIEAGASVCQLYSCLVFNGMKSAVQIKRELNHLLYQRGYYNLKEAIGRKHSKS
Put plainly: (§1) Inhibition of recombinant Plasmodium falciparum DHODH.

Data set [3] is described as follows: Selectivity for Plasmodium falciparum recombinant DHODH over human recombinant DHODH.
Data set [4] deals with T2, Dihydroorotate dehydrogenase (quinone), mitochondrial (Plasmodium falciparum (isolate 3D7)), Q08210 [F188A].
T2 sequence (whole entry): T1 sequence (Q54A96 whole entry) with F188A
As to the kind of experiment: Inhibition of Plasmodium falciparum DHODH F188A mutant.

Data set [5] addresses T3, Dihydroorotate dehydrogenase (Plasmodium falciparum) (UniProt Q54A96).
T3 sequence (whole entry): T1 sequence (Q54A96 whole entry)
As to the kind of experiment: Inhibition of recombinant Plasmodium falciparum DHODH at 10 uM.

Data set [6] relates to Plasmodium falciparum. Put plainly: Antimalarial activity against Plasmodium falciparum NF54 3D7 after 48 hrs. The data set is classed as functional, organism-based. The following applies: NF54/3D7, 48 h.
Compound in data set [7]: CCCCCCCCCCC1=C(C)C(=O)C(OC)=C(OC)C1=O
The description is as §1.

Compound in data set [8]: O=C1CC(C(=O)O)NC(=O)N1
The data set is described as §1.

Numbering of substitutions follows the chain as printed. The source made the active and inactive calls. The rule behind the calls is not given here. Where only a bound is given, the exact number is not on record here.

Sequence of Dihydroorotate dehydrogenase (quinone), mitochondrial (Q02127 whole entry): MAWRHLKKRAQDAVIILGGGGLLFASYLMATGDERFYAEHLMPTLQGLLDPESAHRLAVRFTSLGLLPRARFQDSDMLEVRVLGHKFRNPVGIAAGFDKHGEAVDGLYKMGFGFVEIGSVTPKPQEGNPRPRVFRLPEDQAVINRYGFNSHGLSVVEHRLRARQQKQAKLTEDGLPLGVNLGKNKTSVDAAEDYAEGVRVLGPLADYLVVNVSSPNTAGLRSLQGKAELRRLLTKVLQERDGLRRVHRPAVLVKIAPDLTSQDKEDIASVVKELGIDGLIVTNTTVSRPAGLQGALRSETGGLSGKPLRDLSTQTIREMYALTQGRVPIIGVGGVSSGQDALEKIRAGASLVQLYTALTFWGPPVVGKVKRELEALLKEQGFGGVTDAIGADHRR

Take `CCOC(=O)/C(C#N)=C\Nc1ccc(-c2ccccc2)cc1`: the 50% inhibitory concentration (IC50) in data set [1] and in data set [2] was more than 500 µM throughout.

On to `CCOC(=O)C(=CNc1cccc(-c2ccccc2)c1)C(=O)OCC`, for which the Selectivity ratio in data set [3] came to 1. In data set [1], the IC50 (in general, the point on the concentration scale where inhibition reaches its midpoint) came out at 104 µM and the Ki (in general, a measure of affinity in units of concentration, obtained from inhibition or displacement) amounted to 12.8 µM. Also, in data set [2], the IC50 was 86.7 µM and the Ki came out at 10 µM.

Regarding `C/C(O)=C(\C#N)C(=O)Nc1ccc(C(F)(F)F)cc1`, in data set [4], the result was inactive.

As to `CCOC(=O)C(=CNc1ccc2[nH]ncc2c1)C(=O)OCC`, the Selectivity ratio in data set [3] amounted to 5. In addition, in data set [1], the IC50 stood at 123 µM and the Ki came to 15.1 µM. In addition, in data set [5], the inhibition (in general, the drop in the measured response relative to a control, in per cent) is more than 10%. Moreover, in data set [2], the half-maximal inhibitory concentration (IC50) came to 27.8 µM and the Ki worked out at 3.2 µM.

In the case of `CCOC(=O)C(=CNc1ccc(-c2ccccc2)cc1)C(=O)OCC`, the IC50 in data set [1] and in data set [2] was more than 500 µM each time.

Consider `CCOC(=O)/C(C#N)=C\Nc1cccc(-c2ccccc2)c1`, for which the Selectivity ratio in data set [3] worked out at 10. In data set [1], the IC50 was 220 µM and the Ki worked out at 0.027 µM.

`CCOC(=O)/C(C#N)=C\Nc1ccc2c(c1)c1ccccc1n2CC`: the Selectivity ratio in data set [3] worked out at 1210. In addition, the IC50 in data set [1] was 491 µM; in data set [6], 4000 nM; in data set [2], 0.44 µM. In addition, the Ki in data set [1] came out at 60.4 µM; in data set [2] it was 0.05 µM. Further, the inhibition in data set [5] is more than 10%.

On to `CCOC(=O)C(=CNc1ccccc1C)C(=O)OCC`, for which the Selectivity ratio in data set [3] amounted to 1. Further, in data set [1], the IC50 came to 292 µM and the inhibition constant (Ki) was 35.9 µM. The inhibition in data set [5] was more than 10%. Moreover, in data set [2], the half-inhibitory concentration (IC50) was 346 µM and the inhibition constant (Ki) was 39.7 µM.

On to `CCOC(=O)C(=CNc1ccc2[nH]cnc2c1)C(=O)OCC`, for which, in data set [1], the IC50 is more than 500 µM. Further, the inhibition in data set [5] is more than 10%. In data set [2], the half-maximal inhibitory concentration (IC50) stood at 349 µM and the Ki was 40.2 µM.

In the case of `Cc1cc(Br)ccc1NC(=O)c1ccc2ccccc2c1`, in data set [3], the Selectivity ratio stood at 2310. The result in data set [4] was inactive. Also, the Ki amounted to 50.9 µM in data set [1] and 0.02 µM in data set [2]. The IC50 in data set [2] worked out at 0.18 µM.

For the molecule `CCOC(=O)C(=CNc1ccc(C)cc1)C(=O)OCC`, in data set [3], the Selectivity ratio is 4. Moreover, in data set [1], the IC50 turned out to be 146 µM and the inhibition constant Ki was 17.9 µM. Further, the inhibition in data set [5] is more than 10%. Also, in data set [2], the IC50 was found to be 40 µM and the Ki stood at 4.6 µM.

Turning to `Cc1c(C(=O)Nc2cc(Cl)cc(Cl)c2)cccc1[N+](=O)[O-]`, the Selectivity ratio in data set [3] was determined as 2280. Further, the outcome in data set [4] was inactive. Also, the inhibition constant (Ki) in data set [1] stood at 64.4 µM. For the same molecule, in data set [2], the IC50 was found to be 0.23 µM and the Ki came out at 0.03 µM.

Regarding `CCOC(=O)C(=CNc1ccc2sc3ccccc3c2c1)C(=O)OCC`, the Selectivity ratio in data set [3] was found to be 182. In addition, the values for the concentration for half-maximal inhibition (IC50) in data set [1], in data set [6] and in data set [2] were 29.6 µM, 1800 nM and 0.16 µM, respectively. The values for the Ki in data set [1] and in data set [2] were 3.63 µM and 0.02 µM, respectively. The inhibition in data set [5] is more than 10%.

B1: Dihydroorotate dehydrogenase (Plasmodium falciparum), Q54A96 (protein)
chain: T1 sequence (Q54A96 whole entry)
As for B1, the figures for the Km in data set [7] and in data set [8] were 13.4 µM and 31.4 µM, respectively.
